# Test results reported in PubChem BioAssay AID1224913.
# Target: Proto-oncogene tyrosine-protein kinase Src (Homo sapiens) (UniProt P12931)
# Assay: SRC Y416 autophosphorylation block in cells – cell-based, Western blot, late-stage follow-up (AID 1224913)
# Conditions: MDA-MB-231/MCF7 cells, pSRC Y416 Western blot; at 0.1 µM; active compounds read high
# Proto-oncogene tyrosine-protein kinase Src (Homo sapiens), sequence (P12931 whole entry, looked up): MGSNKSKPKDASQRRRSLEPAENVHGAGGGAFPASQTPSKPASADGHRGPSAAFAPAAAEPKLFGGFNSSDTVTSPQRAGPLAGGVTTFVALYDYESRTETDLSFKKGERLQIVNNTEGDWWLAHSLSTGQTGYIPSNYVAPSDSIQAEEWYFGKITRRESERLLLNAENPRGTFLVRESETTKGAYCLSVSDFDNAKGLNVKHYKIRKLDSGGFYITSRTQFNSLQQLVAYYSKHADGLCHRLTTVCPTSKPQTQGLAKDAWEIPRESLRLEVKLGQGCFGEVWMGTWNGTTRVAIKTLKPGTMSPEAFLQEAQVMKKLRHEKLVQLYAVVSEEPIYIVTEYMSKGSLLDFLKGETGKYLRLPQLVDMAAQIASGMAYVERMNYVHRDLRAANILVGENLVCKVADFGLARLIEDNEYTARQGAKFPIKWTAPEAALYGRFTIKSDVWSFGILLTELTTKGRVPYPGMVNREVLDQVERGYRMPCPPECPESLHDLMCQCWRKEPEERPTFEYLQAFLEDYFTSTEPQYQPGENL
compound,measurement,value
COc1cc(-c2nn(CCN3CCC(N(C)C)CC3)c3ncnc(N)c23)ccc1NC(=O)OC(C)(C)C,inhibition,100%
